{
  "source": "patent US8101408B2",
  "about": "“Insecticidal extract from legume plants and method of preparing the same” (Her Majesty the Queen in right of Canada, as represented by …, priority 2005, dated 2012)",
  "key": {"Sitophilus oryzae [1]": {"tested_on": "Sitophilus oryzae", "assay": "Flour disk antifeedant bioassay with rice weevils (food consumption as % of control; EC50/EC90 for feeding reduction)", "format": "in vivo", "settings": "for food consumption in the rice weevil bioassay: RPC isolate, disks from one-half the usual amount of flour (100 mg)", "procedure": "The bioactivity of separated fractions was determined primarily by a flour disk antifeedant bioassay with the rice weevil (Sitophilus oryzae), an insect pest of stored products.\nA glass column (1.2 cm internal diameter×20.5 cm length) equipped with a solvent reservoir and stopcock was filled with silica gel (Mallinckrodt SilicAR cc-7) using a slurry of the silica gel in chloroform (Merck OmniSolv containing 1% ethanol). The top of the bed was protected with sea sand. C8 powder (130 mg) was applied to the column, after mixing with silica gel, as a 1.25 cm band. Using a slight positive air pressure to maintain reasonable flow rates, the column was eluted with chloroform (75 ml) then with 75 ml volumes of various mixtures of chloroform and methanol followed by pure methanol (Table 1). The column was eluted with more methanol (75 ml) and finally with two additional volumes of methanol (250 ml each). […] A final evaporation was performed with a Savant apparatus (43° C.). The tubes were re-weighed, capped and transferred to the bioassay laboratory. Each sample was dissolved in 70% ethanol (0.5 ml) and 0.2 ml of that solution was added to the wheat flour (200 mg) for preparation of the disks. […] Control disks were prepared with 0.2 ml of 70% ethanol.\nA test insecticidal compound is incorporated into flour disks. […] A typical dose in many of the above examples is 1.6 milligram/200 milligram flour. Wheat flour is typically used.\n(§1) Reduction in feeding activity elicited by the experimental samples was compared to food consumption of untreated controls, obtained by weighing the disks before and after exposure to insects and expressed as percent feeding relative to the control. Bioassay can also include insecticidal measurements (lethality with rice weevil).\n(§2) Flour disks (ca. 0.1 g/disk) were weighed before and after exposure to the insects. […] Antifeedant activity was determined by expressing consumption of treated disks as a percentage of control disks (70% ethanol). Positive controls using the same C8 extract were run with each bioassay.\nThe estimate and confidence limits are the values of X where the line Y=Yo crosses the regression line and its upper and lower confidence curves, respectively. The formulae can be expressed in terms of outputs from the regression analysis. Let a and b be the estimates of the intercept and slope, MSE the mean square error, n the number of observations, t the (2-sided) critical value of t with n−2 degrees of freedom, V(b) the variance (standard error squared) of b and D=b^2−t^2V(b)). Then the estimate of X is Xo=(Yo−a)/b and the confidence limits for X are X0+t^2V(b)(Y0− Y)/bD±H where H^2=t^2└D·MSE/n+V(b)(Y0− Y)^2┘/D^2. The interval is not symmetric about Xo. […]"}, "[2]": {"assay": "Stability in solution or on storage judged by TLC, HPLC and mass spectrometry", "format": "physicochemical", "excerpt": "Samples containing soyasaponin VI, freshly prepared in 80% ethanol, could be shown to contain intact soyasaponin VI by HPLC/MS with electrospray ionization, by the appearance of the strong quasimolecular ion at mass1069. However, the samples were always contaminated with soyasaponin I (quasimolecular ion at 943).\nThe peptide of mass 3788 was of particular interest because its molecular weight was the same as that of PA1b described by Higgins et al. (1986). During RPC, the 3788 peptide was found in highest concentrations in the end fractions from silica gel flash chromatography of C8 with chloroform-water-methanol and then methanol as eluent (system 1 isolate)."}, "[3]": {"tested_on": "sugar taste receptor cells of the blowfly", "settings": "Ahamed et al., 2000; cited from earlier work"}, "Sitophilus oryzae [4]": {"tested_on": "Sitophilus oryzae", "format": "in vivo", "settings": "for mortality / toxicity to the rice weevil (in words): used alone", "procedure": "as §1, §2\nProbit analysis (Polo-PC, LeOra Software, Berkeley, Calif., U.S.A.) was used to estimate the concentrations required to kill 50 and 90% of the population after seven days. For the experiments that used a single dose, the mean survival time was estimated using Kaplan-Meier survival analysis (SigmaStat 3.0, SPSS Inc, Chicago, Ill., U.S.A.)."}, "Sitophilus oryzae [5]": {"tested_on": "Sitophilus oryzae", "settings": "sample from a Japanese scientist; Bodnaryk et al., U.S. Pat. No. 5,955,082; cited from earlier work"}, "[6]": {"settings": "C8 material as peptide source, total dose 1.6 mg/200 mg of flour"}, "[7]": {"settings": "peptide source AIEX YM3, total dose 1.6 mg/200 mg of flour (D-I: 0.8 mg/100 mg)"}, "[8]": {"settings": "separate experiment, different batch of C8 material as peptide source, total dose 1.6 mg/200 mg of flour"}},
  "note": "Several values for one entry are separate records, joined by “and”; a condition that tells them apart may be missing. Equal values may be shown once. Entries after “also recorded” stand apart in the source; their conditions may differ. Read-outs that look alike come from different tables or passages of the source.",
  "data": [
    {"smiles": "CC1=C(O)C(=O)C[C@H](O[C@@H]2CC(C)(C)C[C@H]3C4=CC[C@@H]5[C@@]6(C)CC[C@H](O[C@@H]7O[C@H](C(=O)O)[C@@H](O)[C@H](O)[C@H]7O[C@@H]7O[C@H](CO)[C@H](O)[C@H](O)[C@H]7O[C@@H]7O[C@@H](C)[C@H](O)[C@@H](O)[C@H]7O)[C@](C)(CO)[C@@H]6CC[C@@]5(C)[C@]4(C)CC[C@@]23C)O1", "note": "[Soyasaponin VI, soyasaponin VI]", "values": [
      {"measurement": "food consumption in the rice weevil bioassay", "setting": "Sitophilus oryzae [1]; 0.8 mg dose", "result": 80, "unit": "%"},
      {"measurement": "stability (in words)", "setting": "[2]", "result": "somewhat unstable in solution"},
      {"measurement": "effect on sugar taste receptor cells (in words)", "setting": "[3]", "result": "stimulate the sugar taste receptor cells"}
    ]},
    {"smiles": "C[C@@H]1O[C@@H](O[C@H]2[C@H](O[C@H]3[C@H](O[C@H]4CC[C@@]5(C)[C@@H](CC[C@]6(C)[C@@H]5CC=C5[C@@H]7CC(C)(C)C[C@@H](O)[C@]7(C)CC[C@]56C)[C@@]4(C)CO)O[C@H](C(=O)O)[C@@H](O)[C@@H]3O)O[C@H](CO)[C@H](O)[C@@H]2O)[C@H](O)[C@H](O)[C@H]1O", "note": "[Soyasaponin I, soyasaponin I]", "values": [
      {"measurement": "food consumption, peptide to saponin treatment ratio 1:1 (values in brackets)", "setting": "Sitophilus oryzae [1]; [6]", "result": "(27) % of control"},
      {"measurement": "food consumption, peptide to saponin treatment ratio 1:9 (values in brackets)", "setting": "Sitophilus oryzae [1]; [6]", "result": "(26) % of control"},
      {"measurement": "food consumption, peptide to saponin treatment ratio 9:1 (values in brackets)", "setting": "Sitophilus oryzae [1]; C8 material as peptide source, total dose 1.6 mg/200 mg of flour (D-I: 0.8 mg/100 mg)", "result": "(29) % of control"},
      {"measurement": "food consumption in the rice weevil bioassay", "setting": "Sitophilus oryzae [1]; 0.43 mg dose", "result": 100, "unit": "%"},
      {"measurement": "food consumption (% of control)", "setting": "Sitophilus oryzae [1]; Table 3, dose 1.6 mg/200 mg flour, listed as soyasaponin I (free acid)", "result": "83 % of control and 114 % of control"},
      {"measurement": "food consumption, initial treatment", "setting": "Sitophilus oryzae [1]; Table 20, saponin alone, 1.6 mg/200 mg of flour", "result": "98 % of control"},
      {"measurement": "feeding, % of the control", "setting": "Sitophilus oryzae [1]; highest concentration tested, 12.8%", "result": "75 % of the control"},
      {"measurement": "food consumption, peptide to saponin treatment ratio 1:9", "setting": "Sitophilus oryzae [1]; peptide source AIEX YM3, total dose 1.6 mg/200 mg of flour", "result": "16 % of control"},
      {"measurement": "food consumption, peptide to saponin treatment ratio 1:1", "setting": "Sitophilus oryzae [1]; [7]", "result": "23 % of control"},
      {"measurement": "food consumption, peptide to saponin treatment ratio 9:1", "setting": "Sitophilus oryzae [1]; [7]", "result": "24 % of control"},
      {"measurement": "antifeedant activity (in words)", "setting": "Sitophilus oryzae [1]; rice weevil flour disk bioassay", "result": "inactive; also recorded: no significant reduction in feeding"},
      {"measurement": "Feeding as a percent of control (%)", "setting": "Sitophilus oryzae [1]; saponin:peptide ratio 1:0 (saponin or soap alone), concentration 0.8%", "result": "92% and 98%"},
      {"measurement": "EC90 (%) to reduce feeding by 90%", "setting": "Sitophilus oryzae [1]; saponin:peptide ratio 1:0, three days on treated wafers", "result": ">>12 ^ %"},
      {"measurement": "food consumption, peptide to saponin treatment ratio 1:1 (values in brackets)", "setting": "Sitophilus oryzae [1]; [8]", "result": "(33)^7 % of control"},
      {"measurement": "food consumption, peptide to saponin treatment ratio 1:9 (values in brackets)", "setting": "Sitophilus oryzae [1]; [8]", "result": "(42)^7 % of control"},
      {"measurement": "food consumption, peptide to saponin treatment ratio 9:1 (values in brackets)", "setting": "Sitophilus oryzae [1]; [8]", "result": "(44)^7 % of control"},
      {"measurement": "Mean survival time (days ± SE)", "setting": "Sitophilus oryzae [4]; saponin:peptide ratio 1:0, 0.8%, Kaplan-Meier", "result": 13.8, "unit": "a days"},
      {"measurement": "LD90 (%)", "setting": "Sitophilus oryzae [4]; saponin:peptide ratio 1:0, held three days on treated wafers, at 7 days", "result": ">>12 ^ %"},
      {"measurement": "mortality / toxicity to the rice weevil (in words)", "setting": "Sitophilus oryzae [4]", "result": "no mortality"},
      {"measurement": "mortality / toxicity to the rice weevil (in words)", "setting": "Sitophilus oryzae [4]; listed as soyasaponin I", "result": "no increase in mortality"},
      {"measurement": "activity in the rice weevil bioassays (in words)", "setting": "Sitophilus oryzae [5]", "result": "nearly inactive"}
    ]}
  ]
}
